Laboratory results published in PubChem BioAssay (NCI).
“And” between values parts separate entries of the source, which are not always exact repeats. Identical values can stand only once.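 Dose response: 5 concentrations. Exposure: 48 h. Format: 96-well plates. Endpoint: linear interpolation; highest concentration if not reached. GI50 = concentration required for 50% inhibition of growth. Definition used: TGI = concentration required for complete inhibition of growth.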

Assays:
Assay in all cases: NCI anticancer screen, dose series, 48 h
ACHN renal = test system: ACHN renal
EKVX NSCLC = test system: EKVX NSCLC
IGROV1 ovarian = test system: IGROV1 ovarian
MOLT-4 leukemia = test system: MOLT-4 leukemia
NCI/ADR-RES ovarian = test system: NCI/ADR-RES ovarian
PC-3 prostate = test system: PC-3 prostate
RPMI-8226 leukemia = test system: RPMI-8226 leukemia
SK-MEL-28 melanoma = test system: SK-MEL-28 melanoma
SNB-19 CNS = test system: SNB-19 CNS
SNB-75 CNS = test system: SNB-75 CNS

SMILES | TGI (ACHN renal) | TGI (EKVX NSCLC) | TGI (IGROV1 ovarian) | TGI (MOLT-4 leukemia) | TGI (NCI/ADR-RES ovarian) | TGI (PC-3 prostate) | TGI (RPMI-8226 leukemia) | TGI (SK-MEL-28 melanoma) | TGI (SNB-19 CNS) | TGI (SNB-75 CNS) | GI50 (ACHN renal) | GI50 (EKVX NSCLC) | GI50 (IGROV1 ovarian) | GI50 (MOLT-4 leukemia) | GI50 (NCI/ADR-RES ovarian) | GI50 (PC-3 prostate) | GI50 (RPMI-8226 leukemia) | GI50 (SK-MEL-28 melanoma) | GI50 (SNB-19 CNS) | GI50 (SNB-75 CNS)
Cc1ccccc1N=Nc1c(O)[nH]c2ccccc12 | > 100 µM | > 100 µM | > 100 µM | > 100 µM | > 100 µM | > 100 µM | > 100 µM | > 100 µM | > 100 µM | > 100 µM |  |  |  |  |  |  |  |  |  | 
CC[C@H](C)n1cc(C)c2c(C(=O)NCc3c(C)cc(C)[nH]c3=O)cc(-c3ccc(N4CCNCC4)nc3)cc21 | 31.2 µM and 31.3 µM | 27 µM and 27.6 µM | 27.4 µM and 33.2 µM | 20.6 µM and 22 µM | > 100 µM and 33.7 µM | 31.5 µM and 27.3 µM | 28 µM and 28.9 µM | 27.8 µM and 19.9 µM | 30.4 µM and 26.8 µM | 19.8 µM and 17.6 µM | 17.1 µM and 16.5 µM | 12.6 µM and 13.6 µM | 12.9 µM and 16.4 µM | 5.87 µM and 6.18 µM | 35.1 µM and 17.6 µM | 17.3 µM and 13.9 µM | 11.4 µM and 11.7 µM | 14.1 µM and 6.51 µM | 14.9 µM and 12.7 µM | 6.12 µM and 3.63 µM
COc1cccc(C2C3=C(COC3=O)N(CCO)c3cc4c(cc32)OCCO4)c1 (configuration not stated) | > 50 µM | > 50 µM | 0.906 µM |  | 0.727 µM | > 50 µM |  | > 50 µM | > 15.8 µM | 0.424 µM | 0.769 µM | 0.265 µM | 0.0959 µM | 0.195 µM | 0.137 µM | 0.12 µM | 0.0564 µM | > 50 µM |  | 0.0722 µM
N#Cc1c(-c2ccccc2)cc(-c2ccccc2)n(CCCCC(=O)NO)c1=O | 7.91 µM | 11.7 µM | 9.34 µM | 8.83 µM | 3.18 µM | 15.9 µM | 4.61 µM | 10.4 µM | 15.6 µM | 9.07 µM | 2.32 µM | 2.82 µM | 2.48 µM | 1.84 µM | 0.703 µM | 2.72 µM | 1.57 µM | 2.8 µM | 3.53 µM | 1.61 µM
C[C@H]1CC[C@@H]2[C@@H](C)[C@H]3[C@H](C[C@H]4[C@@H]5CC=C6C[C@@H](O)CC[C@]6(C)[C@H]5C[C@H](O)[C@]34C)N2C1 | > 100 µM | > 100 µM | > 100 µM | > 100 µM | > 100 µM | > 100 µM | > 100 µM | > 100 µM | > 100 µM | > 100 µM |  |  |  |  |  |  |  |  |  | 
O=c1[nH]c(SCc2c(Cl)c(Cl)c(Cl)c(Cl)c2Cl)nc(=S)[nH]1 | > 100 µM | > 100 µM | > 100 µM | 21.3 µM | > 100 µM | > 100 µM | 23.3 µM | 98.6 µM | > 100 µM | > 100 µM |  |  |  |  |  |  |  |  |  | 
N#Cc1cccc(NC(=O)c2oc3ccccc3c2-c2cnn(-c3ccccc3)c2)c1 | > 500 µM | > 500 µM | > 500 µM |  | > 500 µM | > 500 µM | > 500 µM | > 500 µM | > 500 µM | 493 µM | > 500 µM | > 500 µM | 120 µM |  | > 500 µM | > 500 µM | > 500 µM | > 500 µM | 192 µM | 82 µM
N#CN1CCC[C@H]1C(=O)N1CCc2c(-c3[nH]nc4ncccc34)cccc21 | 7.89 µM | 25 µM | 12.6 µM | 11 µM | > 31.7 µM | 23.6 µM | 7.47 µM | 13.9 µM | 21.5 µM | 2.78 µM | < 0.01 µM | 0.101 µM | 0.0862 µM | < 0.01 µM | 0.0103 µM | < 0.01 µM | < 0.01 µM | < 0.01 µM | 0.157 µM | 0.211 µM
CCOC(=O)C1=C(C)NC2SC(=O)/C(=C\c3ccccc3)N2C1c1ccccc1 (configuration not stated) | > 100 µM | > 100 µM | > 100 µM |  | > 100 µM | > 100 µM | > 100 µM | > 100 µM | > 100 µM | > 100 µM | > 100 µM | > 100 µM | > 100 µM |  | > 100 µM | 31 µM | 33.5 µM | > 100 µM | > 100 µM | > 100 µM
C=C1C(=O)O[C@@H]2C[C@@H]1CC[C@@]1(C)O[C@@H]1CC[C@@]1(C)O[C@@H]1CC[C@@]2(C)O | 66.4 µM | > 100 µM | > 100 µM | 32.3 µM | 78.3 µM | > 100 µM | 79.7 µM | 34.8 µM | 66 µM |  | 21.5 µM | 32.3 µM | 21.2 µM | 10.1 µM | 32.4 µM | 34.9 µM | 14.4 µM | 17.4 µM | 17.6 µM | 
CCOC(=O)C1=C(C)NC(=O)NC1c1coc2cc(C)cc(C)c2c1=O (configuration not stated) | > 100 µM | > 100 µM | > 100 µM | > 100 µM | > 100 µM | > 100 µM | > 100 µM | > 100 µM | > 100 µM | > 100 µM |  |  |  |  |  |  |  |  |  | 
COc1ccc2c(=O)c3cc([N+](=O)[O-])ccc3n(C)c2c1 | > 100 µM | > 100 µM | > 100 µM | > 100 µM | > 100 µM | > 100 µM | > 100 µM | > 100 µM | > 100 µM | > 100 µM |  |  |  |  |  |  |  |  |  | 
CCN(CC)C(=S)SC1CCOP(=O)(N(CCCl)CCCl)N1C (configuration not stated) | > 67.5 µM | > 96.4 µM | > 53.1 µM | 49.2 µM | > 100 µM | > 100 µM | > 61.2 µM | 42.2 µM | > 100 µM | > 100 µM |  |  |  |  |  |  |  |  |  | 
CCc1c(Cl)nc(Cl)nc1Cl | 0.219 µM | 1.94 µM | 4.44 µM | 9.5 µM | 11.3 µM | 4.06 µM | 0.252 µM | 5.54 µM | 8.79 µM | 4.21 µM |  |  |  |  |  |  |  |  |  | 
CNc1ccc(-c2cc(=O)oc3ccc(Cl)cc23)cc1 | > 100 µM | > 100 µM | > 100 µM | 50.1 µM |  | > 100 µM | 33.9 µM | > 100 µM | > 100 µM |  | 0.104 µM and 0.0558 µM | 0.589 µM and 0.279 µM |  | 0.108 µM and 0.0626 µM | 0.0371 µM and 0.0363 µM | 0.226 µM and 0.064 µM | 0.194 µM and 0.154 µM | 2.08 µM | 0.23 µM and 0.0717 µM | 
